Where a SMILES comes first, the peptide text is derived from it. [ ]: non-standard residue; d: D form. The star is where a group is joined. βGlc = OC[C@H]1O[C@@H](*)[C@H](O)[C@@H](O)[C@@H]1O; Nle = CCCC[C@H](N)C(=O)O
Tests used:
Assay type in all cases: cell-based
VPAC1 = target: T1, VPAC1 (Homo sapiens, UniProt P32241); assay: VPAC1 agonist data (Table 2)
T1 sequence (P32241 31-457): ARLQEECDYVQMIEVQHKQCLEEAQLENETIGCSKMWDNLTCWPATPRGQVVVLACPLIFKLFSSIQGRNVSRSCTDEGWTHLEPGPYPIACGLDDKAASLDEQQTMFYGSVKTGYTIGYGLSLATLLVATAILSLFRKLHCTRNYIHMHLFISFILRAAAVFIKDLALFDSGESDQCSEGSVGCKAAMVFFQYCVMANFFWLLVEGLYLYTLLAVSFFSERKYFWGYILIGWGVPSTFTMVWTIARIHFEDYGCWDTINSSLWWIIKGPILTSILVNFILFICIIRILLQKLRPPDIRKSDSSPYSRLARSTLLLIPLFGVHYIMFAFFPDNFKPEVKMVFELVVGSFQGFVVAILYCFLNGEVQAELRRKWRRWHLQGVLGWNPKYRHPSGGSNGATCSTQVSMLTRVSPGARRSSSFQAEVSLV

VPAC2 = target: T2, VPAC2 (Homo sapiens, UniProt P41587); assay: VPAC2 agonist data (Table 2)
T2 sequence (P41587 24-438): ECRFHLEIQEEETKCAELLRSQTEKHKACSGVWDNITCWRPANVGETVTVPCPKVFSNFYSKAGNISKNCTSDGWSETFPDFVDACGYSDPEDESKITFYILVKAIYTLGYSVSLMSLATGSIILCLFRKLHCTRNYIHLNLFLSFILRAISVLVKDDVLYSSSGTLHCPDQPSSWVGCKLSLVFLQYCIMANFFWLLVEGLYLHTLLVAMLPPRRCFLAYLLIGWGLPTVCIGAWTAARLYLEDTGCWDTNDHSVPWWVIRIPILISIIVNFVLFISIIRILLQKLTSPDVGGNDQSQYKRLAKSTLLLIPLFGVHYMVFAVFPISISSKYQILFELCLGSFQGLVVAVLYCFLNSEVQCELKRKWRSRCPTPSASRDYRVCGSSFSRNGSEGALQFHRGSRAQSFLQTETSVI

PAC1 = target: T3, PAC1 (Homo sapiens, UniProt P41586); assay: PAC1 agonist data (Table 2); set-up: host or cells: CHO (clonal line PAC1-CHO)
T3 sequence (P41586 21-468): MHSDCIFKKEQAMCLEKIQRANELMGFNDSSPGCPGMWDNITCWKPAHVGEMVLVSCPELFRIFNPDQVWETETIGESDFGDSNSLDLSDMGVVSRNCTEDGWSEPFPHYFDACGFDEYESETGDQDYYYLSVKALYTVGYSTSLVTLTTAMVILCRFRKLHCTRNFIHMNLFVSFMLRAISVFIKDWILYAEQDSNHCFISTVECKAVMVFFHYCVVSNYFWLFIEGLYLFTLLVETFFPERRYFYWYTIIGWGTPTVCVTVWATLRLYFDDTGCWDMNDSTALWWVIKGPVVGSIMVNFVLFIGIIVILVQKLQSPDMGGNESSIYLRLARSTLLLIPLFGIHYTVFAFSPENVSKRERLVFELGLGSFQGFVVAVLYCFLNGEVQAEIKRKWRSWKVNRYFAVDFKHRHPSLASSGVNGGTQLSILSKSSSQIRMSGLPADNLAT
Protocol: A custom DNA clone of the human PAC1 gene with 3 hemagglutinin (HA) tags inserted 3′ to the signal peptide sequence (to avoid proteolytic loss) was obtained from Genecopoeia (Rockville, MD). The construct was electroporated into Chinese Hamster Ovary (CHO) cells, and selected for with 500 μg/mL of G418. The resulting population was screened for high expressing clones, and one such clone selected for further analysis. […] This cell line was used for all molecular pharmacology experiments. The cells were maintained in DMEM/F12 with 10% heat-inactivated FBS, 1× penicillin/streptomycin, and 500 μg/mL G418, at 37° C. and 5% CO2.
All molecular pharmacology experiments were carried out using a FLIPR Tetra from Molecular Devices (Sunnyvale, CA), set to image calcium flux using the manufacturer's recommended settings and protocols. The day before an experiment, the PAC1-CHO cells were split into 384 well black walled, clear bottom microplates, 10,000 cells per well. The cells were recovered overnight in growth medium (as above). The next day, the growth medium was replaced with Calcium 6 dye (Molecular Devices) using the manufacturer recommended buffer with 2.5 mM probenecid. The cells were incubated for 2 hours in the culture incubator, and removed during the last 15 minutes to allow equilibration to room temperature. Compound as indicated below was added to the cells using a 384 tip block, with real time monitoring before, during, and 15 minutes after compound addition. The resulting calcium flux was recorded, and the maximum-minimum response over the entire observation time calculated and reported as the mean±SEM (4 wells per point).
For agonist mode experiments, compound was added in an 11 point concentration curve, with a vehicle control (buffer). […] The response was analyzed using a 3 variable non-linear curve fit, and the EC50 (nM) and EMax (%) calculated and reported (Prism, GraphPad, La Jolla, CA).

| Structure (SMILES) | EC50 (VPAC1) | Emax (VPAC1) | EC50 (VPAC2) | Emax (VPAC2) | EC50 (PAC1) | Emax (PAC1) |
| --- | --- | --- | --- | --- | --- | --- |
| CCCC[C@H](NC(=O)[C@H](CCC(N)=O)NC(=O)[C@H](CCCCN)NC(=O)[C@H](CCCNC(=N)N)NC(=O)[C@H](Cc1ccc(O)cc1)NC(=O)[C@H](CCCNC(=N)N)NC(=O)[C@H](CO)NC(=O)[C@H](Cc1ccc(O)cc1)NC(=O)[C@H](CO)NC(=O)[C@H](CC(=O)O)NC(=O)[C@@H](NC(=O)[C@H](Cc1ccccc1)NC(=O)[C@@H](NC(=O)CNC(=O)[C@H](CC(=O)O)NC(=O)[C@@H](CO)NC(=O)[C@@H](N)Cc1c[nH]cn1)[C@@H](C)CC)[C@@H](C)O)C(=O)N[C@@H](C)C(=O)N[C@H](C(=O)N[C@@H](CCCCN)C(=O)N[C@@H](CCCCN)C(=O)N[C@@H](Cc1ccc(O)cc1)C(=O)N[C@@H](CC(C)C)C(=O)N[C@@H](C)C(=O)N[C@@H](C)C(=O)N[C@H](C(=O)N[C@@H](CO[C@@H]1O[C@H](CO)[C@@H](O)[C@H](O)[C@H]1O)C(N)=O)C(C)C)C(C)C | 0.0048 µM | 90% | 0.654 µM | 107% | 0.0545 µM | 86% |
| CCCC[C@H](NC(=O)[C@H](CCC(N)=O)NC(=O)[C@H](CCCCN)NC(=O)[C@H](CCCNC(=N)N)NC(=O)[C@H](Cc1ccc(O)cc1)NC(=O)[C@H](CCCNC(=N)N)NC(=O)[C@H](CO)NC(=O)[C@H](Cc1ccc(O)cc1)NC(=O)[C@H](CO)NC(=O)[C@H](CC(=O)O)NC(=O)[C@H](C)NC(=O)[C@H](Cc1ccccc1)NC(=O)[C@@H](NC(=O)CNC(=O)[C@H](CC(=O)O)NC(=O)[C@@H](CO)NC(=O)[C@@H](N)Cc1c[nH]cn1)[C@@H](C)CC)C(=O)N[C@@H](C)C(=O)N[C@H](C(=O)N[C@@H](CCCCN)C(=O)N[C@@H](CCCCN)C(=O)N[C@@H](Cc1ccc(O)cc1)C(=O)N[C@@H](CC(C)C)C(=O)N[C@@H](C)C(=O)N[C@@H](C)C(=O)N[C@H](C(=O)N[C@@H](CO[C@@H]1O[C@H](CO)[C@@H](O)[C@H](O)[C@H]1O)C(N)=O)C(C)C)C(C)C (H-H[dS]DGIFADSYSRYRKQ[Nle]AVKKYLAAVS(βGlc)-NH2; C-terminus assumed) | 1.37 µM | 85% | – | – | – | – |
| CCCC[C@H](NC(=O)[C@H](CCC(N)=O)NC(=O)[C@H](CCCCN)NC(=O)[C@H](CCCNC(=N)N)NC(=O)[C@H](Cc1ccc(O)cc1)NC(=O)[C@H](CCCNC(=N)N)NC(=O)[C@H](CO)NC(=O)[C@H](Cc1ccc(O)cc1)NC(=O)[C@H](CO)NC(=O)[C@H](CC(=O)O)NC(=O)[C@@H](NC(=O)[C@H](Cc1ccccc1)NC(=O)[C@@H](NC(=O)CNC(=O)[C@H](CC(=O)O)NC(=O)[C@@H](CO)NC(=O)[C@@H](N)Cc1c[nH]cn1)[C@@H](C)CC)[C@@H](C)O)C(=O)N[C@@H](C)C(=O)N[C@H](C(=O)N[C@@H](CCCCN)C(=O)N[C@@H](CCCCN)C(=O)N[C@@H](Cc1ccc(O)cc1)C(=O)N[C@@H](CC(C)C)C(=O)N[C@@H](C)C(=O)N[C@@H](C)C(=O)N[C@H](C(=O)N[C@@H](CC(C)C)C(=O)N[C@@H](CO[C@@H]1O[C@H](CO)[C@@H](O)[C@H](O)[C@H]1O)C(N)=O)C(C)C)C(C)C | 0.0013 µM | 90% | 0.241 µM | 104% | 0.0255 µM | 85% |
| CCCC[C@H](NC(=O)[C@H](CCC(N)=O)NC(=O)[C@H](CCCCN)NC(=O)[C@H](CCCNC(=N)N)NC(=O)[C@H](Cc1ccc(O)cc1)NC(=O)[C@H](CCCNC(=N)N)NC(=O)[C@H](CO)NC(=O)[C@H](Cc1ccc(O)cc1)NC(=O)[C@H](CO)NC(=O)[C@H](CC(=O)O)NC(=O)[C@H](C)NC(=O)[C@H](Cc1ccccc1)NC(=O)[C@@H](NC(=O)CNC(=O)[C@H](CC(=O)O)NC(=O)[C@@H](CO)NC(=O)[C@@H](N)Cc1c[nH]cn1)[C@@H](C)CC)C(=O)N[C@@H](C)C(=O)N[C@H](C(=O)N[C@@H](CCCCN)C(=O)N[C@@H](CCCCN)C(=O)N[C@@H](Cc1ccc(O)cc1)C(=O)N[C@@H](CC(C)C)C(=O)N[C@@H](C)C(=O)N[C@@H](C)C(=O)N[C@H](C(=O)N[C@@H](CO[C@@H]1O[C@H](CO)[C@@H](O)[C@H](O)[C@H]1O)C(=O)N[C@@H](CC(C)C)C(N)=O)C(C)C)C(C)C (H-H[dS]DGIFADSYSRYRKQ[Nle]AVKKYLAAVS(βGlc)L-NH2; C-terminus assumed) | 1.62 µM | 78% | – | – | – | – |
| CCCC[C@H](NC(=O)[C@H](CCC(N)=O)NC(=O)[C@H](CCCCN)NC(=O)[C@H](CCCNC(=N)N)NC(=O)[C@H](Cc1ccc(O)cc1)NC(=O)[C@H](CCCNC(=N)N)NC(=O)[C@H](CO)NC(=O)[C@H](Cc1ccc(O)cc1)NC(=O)[C@H](CO)NC(=O)[C@H](CC(=O)O)NC(=O)[C@@H](NC(=O)[C@H](Cc1ccccc1)NC(=O)[C@@H](NC(=O)CNC(=O)[C@H](CC(=O)O)NC(=O)[C@@H](CO)NC(=O)[C@@H](N)Cc1c[nH]cn1)[C@@H](C)CC)[C@@H](C)O)C(=O)N[C@@H](C)C(=O)N[C@H](C(=O)N[C@@H](CCCCN)C(=O)N[C@@H](CCCCN)C(=O)N[C@@H](Cc1ccc(O)cc1)C(=O)N[C@@H](CC(C)C)C(=O)N[C@@H](C)C(=O)N[C@@H](C)C(=O)N[C@@H](CC(C)C)C(=O)N[C@@H](CO[C@@H]1O[C@H](CO)[C@@H](O)[C@H](O)[C@H]1O)C(=O)N[C@@H](CC(C)C)C(N)=O)C(C)C (H-H[dS]DGIFTDSYSRYRKQ[Nle]AVKKYLAALS(βGlc)L-NH2; C-terminus assumed) | 0.0059 µM | 93% | > 2.5 µM | -95% | > 0.25 µM | -79% |

— patent publication US20240294595A1, “GLYCOPEPTIDES AND USES THEREOF” (Arizona Board of Regents on Behalf of the University of …, priority 2013, published 2024)
